Where two headings read alike, the source gives them in different places.
How the values were obtained:
autism = assay: Case reports, autism; conditions: child
[1] = test system: pancreatic cancer cells: MIA-PaCa2, PANC1, and BxPC3; assay: Continuous 48 h exposure to naltrexone, pancreatic cancer cells
MS patients = assay: Retrospective chart review of MS patients receiving LDN; format: in vivo, human
Excerpt: This study investigated the safety, tolerability, and benefits (fatigue, reduction) of LDN in patients with MS. It reviewed the number of patients who stopped taking LDN and if there were specific reasons for stopping the LDN. The frequency and variety of side effects that were specific to LDN use are reported. […] 1, 2005 and May 31, 2012. There were 215 MS patients having exposure to LDN during the time of this study. […] In addition to the assessment we review Brain MRIs and Spinal Cord MRIs that were obtained as part of the clinical status of the patient and standard of care.
It reviewed the number of patients who stopped taking IMMEDIATE RELEASE NALTREXONE (LDN) and if there were specific reasons for stopping the IMMEDIATE RELEASE NALTREXONE (LDN). […] 1, 2005 and May 31, 2012. […] In addition to the assessment we review Brain Mills and Spinal Cord MRIs that were obtained as part of the clinical status of the patient and standard of care.

Rheumatoid Arthritis = assay: Case reports, Rheumatoid Arthritis; format: in vivo, human
Procedure: A person diagnosed with Rheumatoid Arthritis in 2006 and was being treated with methotrexate and plaquenil but patients continued with pain and fatigue.
person two diagnosed 5 years ago with RA was treated with Methotrexate 25 mg per week and Remicade […] every 6 weeks, the fatigue and pain continued, along with the inflammation and general weakness. Sleep disturbed nightly due to pain in my shoulders and hips. Patient felt their life was not acceptable and none of the immunosuppression drugs were helping. […] Within two weeks patient stopped even ibuprophen. Rheumatoid factor has gone from 127 to 66 in 4 months and has stayed stable. […] Occasionally patient has pain but it is easily controlled with a normal dosage of ibuprophen.
A person, diagnosed with RA in 1999 stayed very active until 2005 on a combination of Methotrexate and Prednisone but was have difficulty maintaining their business due to fatigue and severe joint pain with deformity of their hands and elbows. Patient was told to increase their does and start a second immunomodulating drug. Patient no longer wanted to continue with immunosuppression drug or steroids due to the side effects.

[2] = test system: primary progressive multiple sclerosis (PPMS); assay: Six month phase II multicenter pilot trial in primary progressive multiple sclerosis, 40 patients; format: in vivo, human
Procedure: The primary end points were safety and tolerability. Secondary outcomes were efficacy on spasticity, pain, fatigue, depression, and quality of life. Clinical and biochemical evaluations were serially performed. Protein concentration of beta-endorphins (BE) and mRNA levels and allelic variants of the mu-opioid receptor gene (OPRM1) were analyzed.

Shingles = assay: Case report, shingles; format: in vivo, human; conditions: person; 4.5 mg nightly since 2013
Procedure: A person diagnosed with Shingles in 2010 over 18 months had 8 major outbreaks, and was treated with acyclovir, and valacyclovir, as the outbreaks continued they prescribed Lidocaine patches and pain medications.

patients with AIDS = conditions: cited from earlier work
[3] = test system: lymphocyte subsets of autistic children; assay: Behavioral and immunological assessment in autism, double-blind naltrexone; set-up: species or system human; conditions: in vivo
Excerpt: Opioid-immune interactions in autism: behavioral and immunological assessment during a double-blind treatment with naltrexone.
Changes in natural killer cells and activity were inversely related to plasma beta-endorphin levels.

fibromyalgia = assay: Study in ten women with fibromyalgia; format: in vivo, human
Excerpt: Baseline erythrocyte sedimentation rate predicted over 80% of the variance in drug response. […] Which confirms the ability of Immediate release naltrexone to decree pain and inflammation.

Follicular Lymphoma (FL) = conditions: 1 year after last CT/PET imaging; cited from earlier work
asymptomatic HIV+ adults = assay: Single blind 90 day randomized bridging clinical trial in Nigeria; format: in vivo, human
Procedure: The differences in CD4 count, CD4%, hemoglobin, viral load, interferon alpha, and standard chemistry panel were measured between treated versus non-treated groups four times throughout the study. […] When used alone, it appears to slow and/or stop the progression of the disease.

[4] = 3.0 mg daily at bedtime, 12 weeks, vs placebo

Structure (SMILES): O=C1CC[C@@]2(O)[C@H]3Cc4ccc(O)c5c4[C@@]2(CCN3CC2CC2)[C@H]1O5 [Immediate release naltrexone, naltrexone]
- language skills (autism): improved
- side effect (autism): a little constipation
- illness (autism; continually sick before): has not been sick since starting
- hyperactivity (autism; 3 mg): increased for the first three weeks
- social behaviors (autism; 3 mg, over the next months): skyrocketed
- effect on pancreatic cancer cells [1]: no effect
- quality of life surveys: patients improved (MS patients; human, in vivo): 83 patients
- quality of life surveys: patients stable (MS patients; human, in vivo): 92 patients
- quality of life surveys: patients worse (MS patients; human, in vivo): 9
- MRI scans showed improvement (MS patients; of 215 patients): 14
- MRI scans stable (MS patients; of 215 patients): 113
- MRI scans slightly worse (MS patients; of 215 patients, new but inactive lesion(s)): 28
- quality of life (MS patients; over a long period of time): improvement
- Fatigue (Rheumatoid Arthritis; person two): gone
- Rheumatoid factor (Rheumatoid Arthritis; person two, 4.5 mg at bedtime, from 127 in 4 months): 66
- disease course (Rheumatoid Arthritis; person, 4.5 mg with multi-part protocol, 7 years later): not advanced
- use of other medication (Rheumatoid Arthritis; person, titrated to 4.5 mg, March of 2010): Successfully discontinued methotrexate
- major adverse events ([2]; 40 patients): two
- BE (beta-endorphins) concentration ([2]; during the trial): increased
- spasticity ([2]; end of the trial): significant reduction
- Neurological disability ([2]; human, in vivo): progressed in only one patient
- safety and tolerability ([2]; six months): safe and well tolerated
- shingles outbreaks (Shingles): not had a single outbreak
- elevated levels of serum alpha interferon (IFN-α) (patients with AIDS; 1.75 mg nightly, 3-month double-blind period, vs placebo p<0.01): significant drop
- lymphocyte mitogen responses (patients with AIDS; [4]): declined on placebo and not on Immediate release naltrexone
- pathologically elevated levels of acid-labile alpha interferon (patients with AIDS; [4]): declined significantly
- incidence of opportunistic infections (patients with AIDS; 3.0 mg daily at bedtime, 12 weeks, placebo 5 out of 16 (31%)): 0 of the 22
- survival of patients who did not show a decline in IFN-a (patients with AIDS; 2 of the 15): 13%
- survival of patients who showed a decline in IFN-a (patients with AIDS; Nineteen of the 23): 83%
- mean IFN-a level after decline (patients with AIDS; from mean of 144.9 IU. over a 12-month period, 23 patients): 11.0 IU.
- side effects (patients with AIDS; human, in vivo): No side effects were noted
- T-cytotoxic-suppressor (CD4− CD8+) [3]: significant reduction
- T-helper-inducers (CD4+ CD8−) [3]: significant increase
- reduction of fibromyalgia symptoms over placebo (fibromyalgia; 4.5 mg, entire cohort): greater than 30%
- Side effects (including insomnia and vivid dreams) (fibromyalgia; in vivo): rare
- mechanical and heat pain thresholds (fibromyalgia; laboratory visits): improved
- disease symptoms at follow-up (Follicular Lymphoma (FL)): remains asymptomatic
- pain scores NRS (CRPS; patient, EDS, 3 mg then 4.5 mg per day, from (7-10)/10): 3-5 /10
- post-operative pain NRS (CRPS; patient, 3 weeks after resuming): 4-6 /10
- side effects (CRPS; patient, 18 months): No side effects
- fixed dystonia of the leg (CRPS; patient, at cast removal after ankle surgery): remission
- effect on the dystonia (CRPS; patient, first months of treatment): no effect
- CRPS symptoms (CRPS; patient, maintained for 18 months): resolved completely
- side effects (CRPS; person five): No side effects
- pain, average on the Numeric Rating Scale (NRS) (CRPS; person five, 4.5 mg per day at night, from 8 to 10 before): 5 to 6
- dystonic spasms (CRPS; person five, within 2 months): discontinued
- improvement in CD4 count, increase (asymptomatic HIV+ adults; about 4.5 mg single oral dose with ART, at 3 months, vs control group): 44%
- BMI (asymptomatic HIV+ adults; about 4.5 mg with ART): increase
- opportunistic infections (asymptomatic HIV+ adults; about 4.5 mg with ART): reduction
- Improvement in CD4% (asymptomatic HIV+ adults; about 4.5 mg with ART, throughout treatment): statistically significant

— patent US20170239239A1, “Method for Inducing a Sustained Immune Response” (Immune Therapeutics Inc., priority 2016, published 2017)
